In ChEMBL document CHEMBL4842359, “1,3-Diarylpyrazolyl-acylsulfonamides as Potent Anti-tuberculosis Agents Targeting Cell Wall Biosynthesis in Mycobacterium tuberculosis” (J Med Chem, 2021):
Converted amounts (≈) assume the structure as drawn.

Experiments:
[1] = Lipophilicity, logD of the compound at pH 7.4 by HPLC-DAD analysis; type: physicochemical; conditions: buffer
HepG2 [2] = test: Cytotoxicity against human HepG2 cells under glucose containing medium; type: cell-based
[3] = tested on: Mycobacterium tuberculosis; type: functional; conditions: H37Rv
[4] = Volume of distribution in iv dosed C57BL/6 mouse measured up to 24 hrs by LC-MS/MS analysis; type: ADME, organism-based; conditions: in vivo
[5] = AUC (0 to t) in iv dosed C57BL/6 mouse measured up to 24 hrs by LC-MS/MS analysis; type: ADME, organism-based; parameters: time <=24; conditions: in vivo
[6] = Unbound clearance in iv dosed C57BL/6 mouse measured up to 24 hrs by LC-MS/MS analysis; type: ADME, organism-based; conditions: in vivo
[7] = Metabolic stability in rat liver microsomes assessed as compound remaining at 1 uM by LC-MS/MS analysis; type: ADME, Microsome; conditions: for Stabilty: microsomes, 1 µM
[8] = Metabolic stability in human liver microsomes assessed as compound remaining at 1 uM by LC-MS/MS analysis; type: ADME, Microsome; conditions: for Stabilty: microsomes, 1 µM
[9] = Metabolic stability in mouse liver microsomes assessed as compound remaining at 1 uM by LC-MS/MS analysis; type: ADME, Microsome; conditions: for Stabilty: microsomes, 1 µM
HepG2 [10] = test: Cytotoxicity against human HepG2 cells under galactose containing medium; type: cell-based
[11] = Thermodynamic solubility of compound at pH 7.4 aqueous phosphate buffer
[12] = Dru metabolism in iv dosed mouse assessed as metabolite in feces; type: ADME, organism-based; conditions: in vivo
[13] = Dru metabolism in iv dosed mouse assessed as metabolite in urine; type: ADME, organism-based; conditions: in vivo
[14] = Dru metabolism in iv dosed mouse assessed as metabolite in blood; type: ADME, organism-based; conditions: in vivo
[15] = tested on: Mycobacterium tuberculosis; test: microbe, parasite or virus in culture; conditions: H37Rv, 336 h
Description: Antimycobacterial activity against Mycobacterium tuberculosis H37Rv in presence of middlebrook 7H9/glucose/BSA/tyloxapol medium measured after 14 days by bioluminescence reporter assay

[16] = Plasma protein binding in human assessed as unbound fraction at 5 uM by LC-MS/MS analysis; type: ADME, cell-free
[17] = tested on: Mycobacterium tuberculosis; test: animal or person; type: functional; conditions: time 7 day
[18] = Oral bioavailability in mouse; type: ADME, organism-based; conditions: in vivo
[19] = tested on: Mycobacterium tuberculosis; test: microbe, parasite or virus in culture; conditions: H37RvMA, 336 h
Description: Antimycobacterial activity against Mycobacterium tuberculosis H37RvMA in presence of middlebrook 7H9/glucose/BSA/tyloxapol medium measured for 2 weeks by bioluminescence reporter assay

[20] = Terminal half life in iv dosed C57BL/6 mouse measured up to 24 hrs by LC-MS/MS analysis; type: ADME, organism-based; conditions: in vivo
[21] = Toxicity in BALB/c mouse assessed as tolerability at 200 mg/kg, po once a day treatment initiated 7 days after infection for 12 consecutive days; type: organism-based; conditions: in vivo, 168 h, time 7 day
[22] = tested on: Mycobacterium tuberculosis; test: microbe, parasite or virus in culture; conditions: 336 h
Description: Antimycobacterial activity against Mycobacterium tuberculosis delta cyd in presence of middlebrook 7H9/glucose/BSA/tyloxapol medium measured for 2 weeks by bioluminescence reporter assay

[23] = tested on: Mycobacterium tuberculosis; test: microbe, parasite or virus in culture; conditions: H37RvMA
Description: Antimycobacterial activity against drug-susceptible Mycobacterium tuberculosis H37RvMA by MIGIT method

[24] = tested on: Mycobacterium tuberculosis; test: microbe, parasite or virus in culture; conditions: S2371
Description: Antimycobacterial activity against drug-susceptible Mycobacterium tuberculosis S2371 by MIGIT method

[25] = tested on: Mycobacterium tuberculosis; test: microbe, parasite or virus in culture; conditions: S1125
Description: Antimycobacterial activity against drug-susceptible Mycobacterium tuberculosis S1125 by MIGIT method

[26] = liver microsomes, read-out: Stabilty

Row | Compound | logD [1] | AUCt [5] | CL free [6] | Stabilty [7] | Stabilty [8] | Stabilty [9] | solubility thermodynamic [11] | Vd ([4]; C57BL/6, mouse, read-out: Vd) | also measured
1 | CS(=O)(=O)NC(=O)CCc1cn(-c2ccc(Br)cc2)nc1-c1ccc(Cl)cc1 | 2.4 | 3527 µmol·min/L | 295 mL/min/kg | 74% | 90% | 71% | 170 µM (≈ 82.1 µg/mL) |  | IC50 (HepG2 [2]): > 50 µM; IC90 [3]: 6.25 µM; Vd ([4]; mouse, 24 h): 0.2 L/kg; IC50 (HepG2 [10]): > 50 µM
2 | CS(=O)(=O)NC(=O)NCc1cn(-c2ccc(Cl)cc2)nc1-c1ccncc1 | 0.81 | 29 µmol·min/L | 4878 mL/min/kg | 98% | 99% | 91% | 150 µM (≈ 60.9 µg/mL) |  | Drug metabolism [12]: Metabolite_Notdetected; Drug metabolism [13]: Metabolite_Notdetected; Drug metabolism [14]: Metabolite_Notdetected
3 | CS(=O)(=O)NC(=O)CCc1cn(-c2ccc(Cl)cc2)nc1-c1ccc(Cl)cc1 |  | 4883 µmol·min/L | 111 mL/min/kg |  |  |  | 100 µM (≈ 43.8 µg/mL) | 1.2 L/kg | logD ([1]; read-out: logD): 2; MIC [15]: 4.7 µM (≈ 2.06 µg/mL); fraction unbound at 5 µM [16]: 0.023; MIC at 200 mg/kg ([17]; Mycobacterium tuberculosis, Erdman, in Mus musculus, po, 168 h): 9.1 µM (≈ 3.99 µg/mL); fIC50 ([17]; dose 200 mg/kg): 11 µM; bioavailability [18]: > 95%; MIC [19]: 4 µM (≈ 1.75 µg/mL); remaining at 1 µM [7, 26]: > 99%; half-life ([20]; C57BL/6, mouse, read-out: beta t1/2 (converted)): 3.6 h; remaining at 1 µM [8, 26]: 98%; remaining at 1 µM [9, 26]: 87%; Activity [21]: Non-Toxic; MIC [22]: 4 µM (≈ 1.75 µg/mL)
4 | CS(=O)(=O)NC(=O)CCc1cn(-c2ccc(Br)cc2)nc1-c1ccncc1 | 0.93 | 15 µmol·min/L | > 20000 mL/min/kg | 94% | 85% | 79% | 185 µM (≈ 83.1 µg/mL) | 0.1 L/kg | MIC [23]: ≤ 15 µM; MIC [24]: 30 µM (≈ 13.5 µg/mL); beta t1/2 ([20]; mouse, 24 h): 1.3 h; MIC [25]: 15 µM (≈ 6.74 µg/mL)
